Laboratory results published in patent US7744933B2, “Use of unsaponifiable components of vegetable oils for preparing a cosmetic and related treatments” (Laboratories Expanscience, priority 1998, dated 2010).

Test system: PAI-1
Assay: 35S-methionine radiolabelling for the synthesis of PAI-1 in chondrocytes (SDS-PAGE, fluorography)
Format: cell-based, bovine
Details: 24 hours; Piasclédine 300 10 μg/ml or TGF-β1 1 ng/ml; cell+matrix fraction
Method: The chondrocytes are isolated from calf cartilages as described in the article by Benya et al. (“The progeny of articular chondrocytes synthesize collagen types I and II trimer, but not type II. Verification by cyanogen bromide peptide analysis”, Biochemistry 1977; 16: 865-872). Primary cultures of chondrocytes are used in order to minimize the phenotypic changes. The cultures are plated at the rate of 6.0×10^6 cells per 175-cm^2 dish (for the extraction of RNA), at the rate of 5.0×10^6 cells per well in 6-well plates (9.6 cm^2) (for the labelling of PAI-1) and at the rate of 1.2×10^6 cells in 100-mm Petri dishes (transfection). […]
The confluent cultures in 6-well plates (9.6 cm^2) are labelled with [^35S]methionine (40 μCi/nil, Arnersham, France) in the presence of Piasclédine 300® (10 μg/nil) and TGF-β1 (1 ng/ml) for 24 hours. […] The band at 46 kD is determined to correspond to PAI-1 by previous immunoblotting using a rabbit polyclonal anti-PAI-1 antibody (Dako, Copenhagen, Denmark) as described in the article by Laiho M et al., reference cited above.
It was observed that the medium contained only minor quantities of newly-synthesized PAI-1. […]

Substance: TGF-β1: transforming growth factor β1 protein, 1 ng/ml, marketed by R & D Systems, used as positive control
- PAI-1 fraction (synthesis of PAI-1) versus control cultures: significantly greater
